# Experiments:
# RAW264.7 [1] = assay: Anti-inflammatory activity in Mus musculus (mouse) RAW264.7 cells assessed as inhibition of IFN-gamma/LPS-induced nitric oxide production after 17 to 20 hr by Griess assay; assay type: functional, cell-based
# [2] = Antioxidant activity assessed as DPPH scavenging activity after 30 min by spectrophotometry; assay type: functional
# RAW264.7 [3] = assay: Cytotoxicity against Mus musculus (mouse) RAW264.7 cells at IC50 for NO production by MTT assay; assay type: cell-based
# RAW264.7 [4] = assay: Cytotoxicity against Mus musculus (mouse) RAW264.7 cells at >50 uM by MTT assay; assay type: cell-based
# RAW264.7 [5] = assay: Cytotoxicity against Mus musculus (mouse) RAW264.7 cells at 25 uM by MTT assay; assay type: cell-based; conditions: raw264.7, 25 µM
Structure (SMILES),IC50 (RAW264.7 [1]),IC50 [2],Activity (RAW264.7 [3]),Activity (RAW264.7 [4]),Activity (RAW264.7 [5])
O=C1/C(=C/c2ccc(O)c(O)c2)CCC/C1=C\c1ccc(O)c(O)c1,9.43 µM,13.3 µM,,,
COc1cc(/C=C2\CC/C(=C\c3ccc(OC(C)=O)c(OC)c3)C2=O)ccc1OC(C)=O,≥ 50 µM,≥ 100 µM,,,
CC(=O)Oc1ccc(/C=C2\CC/C(=C\c3ccc(OC(C)=O)c(OC(C)=O)c3)C2=O)cc1OC(C)=O,≥ 50 µM,≥ 100 µM,,,
COc1cc(/C=C2\CCC/C(=C\c3ccc(OC(C)=O)c(OC)c3)C2=O)ccc1OC(C)=O,13.3 µM,≥ 100 µM,,,
CCC(=O)Oc1ccc(/C=C2\CCC/C(=C\c3ccc(OC(=O)CC)c(OC)c3)C2=O)cc1OC,8.02 µM,≥ 100 µM,,,
CC(=O)Oc1ccc(/C=C2\CCC/C(=C\c3ccc(OC(C)=O)c(OC(C)=O)c3)C2=O)cc1OC(C)=O,6.84 µM,≥ 100 µM,,,
COc1cc(/C=C2\CCCC3C2=NN(C(C)=O)C3c2ccc(OC(C)=O)c(OC)c2)ccc1OC(C)=O (stereo not drawn),≥ 50 µM,,,,
COc1ccc(/C=C2\CCCC3C2=NN(C(C)=O)C3c2ccc(OC)c(OC)c2)cc1OC (stereo not drawn),≥ 50 µM,,,,
COc1cc(/C=C2\CCCC3C2=NN(C(=O)c2ccccc2)C3c2ccc(O)c(OC)c2)ccc1O (stereo not drawn),47.1 µM,,,,
COc1ccc(/C=C2\CCCC3C2=NN(C(=O)c2ccccc2)C3c2ccc(OC)c(OC)c2)cc1OC (stereo not drawn),25.1 µM,,,,
O=C1/C(=C/c2cccc(O)c2)CC/C1=C\c1cccc(O)c1,≥ 50 µM,≥ 100 µM,,,
O=C1/C(=C/c2ccc(O)cc2O)CC/C1=C\c1ccc(O)cc1O,≥ 50 µM,50.6 µM,,,
O=C1/C(=C/c2cccc(O)c2O)CC/C1=C\c1cccc(O)c1O,7.94 µM,20.7 µM,,,
O=C1/C(=C/c2cccc(O)c2)CCC/C1=C\c1cccc(O)c1,6.09 µM,≥ 100 µM,Non-toxic,Toxic,Toxic
COc1cc(/C=C2\CC/C(=C\c3ccc(O)c(OC)c3)C2=O)ccc1O,13.9 µM,75 µM,Non-toxic,Toxic,
O=C1/C(=C/c2ccc(O)c(O)c2)CC/C1=C\c1ccc(O)c(O)c1,20.5 µM,14.8 µM,,,
O=C1/C(=C/c2ccc(O)cc2)CC/C1=C\c1ccc(O)cc1,≥ 50 µM,≥ 100 µM,,,
COc1ccc(/C=C2\CCC/C(=C\c3ccc(OC)c(OC)c3)C2=O)cc1OC,19.8 µM,≥ 100 µM,,,
O=C1/C(=C/c2ccc([N+](=O)[O-])cc2)CCC/C1=C\c1ccc([N+](=O)[O-])cc1,29.4 µM,≥ 100 µM,,,
COc1cc(/C=C/C(=O)CC(=O)/C=C/c2ccc(O)c(OC)c2)ccc1O [CURCUMIN],21.6 µM,,,,
COc1cc(/C=C2\CCC/C(=C\c3ccc(O)c(OC)c3)C2=O)ccc1O [CYCLOVALONE],6.68 µM,51.9 µM,Non-toxic,Toxic,
COC(=O)[C@@H](N)CCCNC(=N)N[N+](=O)[O-] [L-NAME],26.2 µM,,,,
O=c1c(O)c(-c2ccc(O)c(O)c2)oc2cc(O)cc(O)c12 [QUERCETIN],,21.5 µM,,,

# Further lines, with some results ahead:
IC50 (RAW264.7 [1]),IC50 [2],Structure (SMILES),Activity (RAW264.7 [3]),Activity (RAW264.7 [4]),Activity (RAW264.7 [5])
12.2 µM,,COc1cc(/C=C2\CCCC3C2=NNC3c2ccc(O)c(OC)c2)ccc1O (stereo not drawn),Non-toxic,Toxic,
26.9 µM,,Oc1ccc(/C=C2\CCCC3C2=NNC3c2ccc(O)cc2)cc1 (stereo not drawn),,,
38.7 µM,,COc1ccc(/C=C2\CCCC3C2=NNC3c2ccc(OC)c(OC)c2)cc1OC (stereo not drawn),,,
≥ 50 µM,,O=[N+]([O-])c1ccc(/C=C2\CCCC3C2=NNC3c2ccc([N+](=O)[O-])cc2)cc1 (stereo not drawn),,,
≥ 50 µM,,Fc1ccc(/C=C2\CCCC3C2=NNC3c2ccc(F)cc2)cc1 (stereo not drawn),,,
≥ 50 µM,,CC(=O)N1N=C2/C(=C/c3ccc([N+](=O)[O-])cc3)CCCC2C1c1ccc([N+](=O)[O-])cc1 (stereo not drawn),,,
≥ 50 µM,,CC(=O)N1N=C2/C(=C/c3ccc(F)cc3)CCCC2C1c1ccc(F)cc1 (stereo not drawn),,,
≥ 50 µM,,O=C(c1ccccc1)N1N=C2/C(=C/c3ccc([N+](=O)[O-])cc3)CCCC2C1c1ccc([N+](=O)[O-])cc1 (stereo not drawn),,,
≥ 50 µM,,O=C(c1ccccc1)N1N=C2/C(=C/c3ccc(F)cc3)CCCC2C1c1ccc(F)cc1 (stereo not drawn),,,
≥ 50 µM,≥ 100 µM,O=C1/C(=C/c2ccc(F)cc2)CC/C1=C\c1ccc(F)cc1,,,
≥ 50 µM,≥ 100 µM,O=C1/C(=C/c2ccc(F)cc2)CCC/C1=C\c1ccc(F)cc1,,,
41.6 µM,≥ 100 µM,O=C1/C(=C/c2ccc(O)cc2)CCC/C1=C\c1ccc(O)cc1,,,
